Assay results published in patent US20260256816A1, “PHARMACEUTICAL COMPOSITION FOR PREVENTING OR TREATING BRAIN TUMOR” (ASTRION INC., priority 2023, published 2026).

Experiments:
[1] = system: U87-MG cells; experiment: Cell migration assay (SPLScar Block); format: cell-based; settings: Homo sapiens, U-87 MG, 24 hours, FIG. 3, read-out: inhibition of cell migration compared to the untreated control
Protocol: Human glioblastoma cell line U87-MG cells were seeded at a density of 8×10^4 cells/well on a SPLScar Block (SPL) plate and cultured for 24 hours. After 24 hours, the block was removed, and the cells were treated with the compound AON-MG23-01 or AON-MG23-02 of the present invention, and cultured at 37° C. in a CO2 incubator for 24 hours. The compound of the present invention was treated at concentrations of 0, 1, 2, and 4 μM. Images were taken before and after culture, and the distance of cell migration was measured using Image J software. Based on the results, whether the cell migration was inhibited was analyzed.

[2] = system: U87-MG cells; experiment: CCK assay, cell proliferation of human glioblastoma cells; format: cell-based; settings: 0, 1, 2, 4 μM, 48 hours, FIG. 2
Protocol: Human glioblastoma cell line U87-MG cells were seeded at a density of 1×10^4 cells/well in a 96-well plate and cultured for 24 hours. Thereafter, the cells were treated with DMSO as a control and the compound AON-MG23-01 or AON-MG23-02 of the present invention, and then cultured for 48 hours. The compound of the present invention was treated at various concentrations of 0, 1, 2, and 4 μM. 10 μL of a CCK reagent was added and reacted for an hour, and the absorbance was then measured at 450 nm.

[3] = system: U87-MG cells; experiment: Matrigel Transwell invasion assay (metastasis inhibition); format: cell-based, human; settings: for degree of penetration into Matrigel compared to the untreated control: 24 hours
Protocol: A human glioblastoma cell line U87-MG was seeded at a density of 8×10^4 cells/well on Matrigel-coated filters (Transwell invasion chambers, Corning), and the cells were then treated with the compound (AON-MG23-01 or AON-MG23-02; each at 0, 1, 2, and 4 μM) of the present invention, and cultured at 37° C. in a CO2 incubator for 24 hours. After the culturing was completed, the cells were fixed and stained using the Diff-Quick Stain kit (Sysmex, Kobe, Japan). Images of the stained cells were taken under a microscope, the cells were counted using Image J software, and statistical analysis was then performed.
A human glioblastoma cell line U87-MG was seeded at a density of 6×10^4 cells/well on the top of a Matrigel-coated filter (Transwell invasion chambers, Corning), treated with 4 μM of the compound AON-MG23-02 of the present invention, 4 μM of the EGFR inhibitor Osimertinib, 100 μM of the ANO1 inhibitor CaCCinh-A01, or a combination of 4 μM of Osimertinib and 100 μM of CaCCinh-A01, and then cultured at 37° C. in a CO2 incubator for 16 hours. After the culturing was completed, the cells were fixed and stained using a Diff-Quick stain kit (Sysmex, Kobe, Japan). Images of the stained cells were taken under a microscope, the cells were counted using Image J software, and statistical analysis was then performed.
A human glioblastoma cell line U87-MG was seeded at a density of 8×10^4 cells/well on the top of a Matrigel-coated filter (Transwell invasion chambers, Corning), and then treated with 0, 8, 16, and 32 μM of each of the compound derivatives AON-MG23-05, AON-MG23-06, AON-MG23-07, and AON-MG23-08 of the present invention, and cultured at 37° C. in a CO2 incubator for 24 hours. After the culturing was completed, the cells were fixed and stained using a Diff-Quick stain kit (Sysmex, Kobe, Japan). Images of the stained cells were taken under a microscope, the cells were counted using Image J software, and statistical analysis was then performed.

[4] = system: EGFR; experiment: Western blot of EGFR protein expression in glioblastoma cell line; format: cell-based, human; settings: U87-MG, 48 hours; for expression of EGFR protein compared to the untreated control: 0, 8, 16, 32 μM, FIGS. 9A to 9D
Protocol: (§1) It was determined whether the compound of the present invention affects the expression of ANO1 and EGFR proteins in a glioblastoma cell line. The human glioblastoma cell line U87-MG was seeded at a density of 1×10^6 cells in a 60 mm dish, and cultured for 24 hours, and the cells were then treated with the compound (AON-MG23-01 or AON-MG23-02; each at 0, 1, 2, and 4 μM) of the present invention, and cultured for 48 hours. The cultured cells were harvested and the harvested cells were lysed for Western blotting. An anti-ANO1 antibody (Abcam, ab53212), an anti-pEGFR antibody (Cell Signaling, #4407S), an anti-EGFR antibody (Cell Signaling, #4267S), and an anti-α-tubulin antibody (Santacruz, #SC-5286) were used as the antibodies for Western blotting. Protein concentration was quantified using the BSA method (a protein quantitation assay, a bovine serum albumin assay) (Pierce, Cat. 23225). After the cells were lysed, an equal amount (10 μg) of the proteins obtained from the lysed cells was subjected to 10% SDS-PAGE to separate the proteins depending on their molecular weights, transferred to a PVDF membrane (Bio-Rad), and then treated with a blocking buffer (5% skim milk in a Tris-buffered saline (TBS) buffer containing 0.1% Tween 20; TBS-T) at room temperature for an hour. Thereafter, the PVDF membrane was treated with the primary antibody, and reacted at 4° C. for 16 hours. […] The amount of each protein was quantified and analyzed using Image J software.
(§2) The inhibitory effects of the compound AON-MG23-02 of the present invention, the EGFR inhibitor Osimertinib, and the ANO1 inhibitor CaCCinh-A01 on the expression of ANO1, EGFR, and pEGFR proteins in a glioblastoma cell line were compared. […] Protein concentration was quantified using the BSA method (a protein quantitation assay, a bovine serum albumin assay) (Pierce, Cat. 23225). […] The amount of each protein was quantified and analyzed using Image J software. […]

[5] = system: ANO1; experiment: Western blot of ANO1 protein expression in glioblastoma cell line; format: cell-based, human; settings: U87-MG, 48 hours; for expression of ANO1 protein compared to the untreated control: 0, 8, 16, 32 μM, FIGS. 9A to 9D
Protocol: as §1, §2

[6] = system: pEGFR; experiment: Western blot of pEGFR protein expression in glioblastoma cell line; format: cell-based, human; settings: U87-MG; 4 μM; 48 hours; vs 2 μM Osimertinib, 100 μM CaCCinh-A01, combination; FIGS. 8A, 8B
Protocol: The inhibitory effects of the compound AON-MG23-02 of the present invention, the EGFR inhibitor Osimertinib, and the ANO1 inhibitor CaCCinh-A01 on the expression of ANO1, EGFR, and pEGFR proteins in a glioblastoma cell line were compared. A human glioblastoma cell line U87-MG was seeded at a density of 100×10^4 cells/dish in a 60 mm dish, and cultured for 24 hours. Thereafter, the cells were treated with 4 μM of AON-MG23-02, 2 μM of the EGFR inhibitor Osimertinib, 100 μM of the ANO1 inhibitor CaCCinh-A01, or a combination of 2 μM of Osimertinib and 100 μM of CaCCinh-A01, and cultured for 48 hours. The cultured cells were harvested and the harvested cells were lysed for Western blotting. An anti-ANO1 antibody (Abcam, ab53212), an anti-pEGFR antibody (Cell Signaling, #4407S), an anti-EGFR antibody (Cell Signaling, #4267S), and an anti-ACTIN antibody (sigma, #A2066) were used as antibodies for Western blotting. Protein concentration was quantified using the BSA method (a protein quantitation assay, a bovine serum albumin assay) (Pierce, Cat. 23225). […] The amount of each protein was quantified and analyzed using Image J software.

[7] = 4 μM, vs 2 μM Osimertinib, 100 μM CaCCinh-A01, combination, FIGS. 8A, 8B
[8] = 0, 8, 16, 32 μM, FIGS. 10A, 10B

Structure (SMILES)	inhibition at 4 µM [1] [%]	proliferation of U87-MG cells (CCK assay) [2]	degree of penetration into Matrigel compared to the untreated control ([3]; 0, 1, 2, 4 μM, FIG. 4)	expression of EGFR protein compared to the untreated control [4]	expression of ANO1 protein compared to the untreated control [5]	degree of penetration into Matrigel compared to the untreated control [3, 8]	further results
COc1cc(N2CCC(N3CCN(C)CC3)CC2)ccc1Nc1ncc(Cl)c(Nc2ccccc2N(C2CC2)S(C)(=O)=O)n1 [AON-MG23-01, N-(2-((5-chloro-2-((2-methoxy-4-(4-(4-methylpiperazin-1-yl)piperidin-1-yl)phenyl)amino)pyrimidin-4-yl)amino)phenyl)-N-cyclopropylmethanesulfonamide]	> 65	inhibits the proliferation of U87-MG cells	reduced degree of penetration into Matrigel				
COc1cc(N2CCC(N(C)C)CC2)ccc1Nc1ncc(Cl)c(Nc2ccccc2N(C2CC2)S(C)(=O)=O)n1 [AON-MG23-02, N-(2-((5-chloro-2-((4-(4-(dimethylamino)piperidin-1-yl)-2-methoxyphenyl)amino)pyrimidin-4-yl)amino)phenyl)-N-cyclopropylmethanesulfonamide]	> 65	inhibits the proliferation of U87-MG cells	reduced degree of penetration into Matrigel				expression of EGFR protein compared to untreated control, EGFR inhibitor, ANO1 inhibitor and combination groups [4, 7]: reduces the expression; expression of ANO1 protein compared to untreated control, EGFR inhibitor, ANO1 inhibitor and combination groups [5, 7]: reduces the expression; degree of penetration into Matrigel compared to untreated control, EGFR inhibitor-treated group and ANO1 inhibitor-treated group ([3]; 4 μM, 16 hours, vs 4 μM Osimertinib, 100 μM CaCCinh-A01, FIGS. 7A, 7B): reduced degree of penetration into Matrigel; expression of pEGFR protein compared to untreated control, EGFR inhibitor, ANO1 inhibitor and combination groups [6]: reduces the expression
O=C1c2ccccc2CN1Cc1ccc(CCN(CCO)Cc2ccc3ccccc3c2)cc1 [AON-MG23-05, 2-(4-(2-((2-hydroxyethyl)(naphthalen-2-ylmethyl)amino)ethyl)benzyl)isoindolin-1-one]				reduced expression	reduced expression	reduced degree of penetration into Matrigel	
CCN(Cc1ccc2ccccc2c1)CC(O)c1ccc(CN2Cc3ccccc3C2=O)cc1 (stereo not drawn) [AON-MG23-06, 2-(4-(2-(ethyl(naphthalen-2-ylmethyl)amino)-1-hydroxyethyl)benzyl)isoindolin-1-one]						reduced degree of penetration into Matrigel	
O=C1c2ccccc2CN1Cc1ccc(CCP(=O)(Cc2ccc3ccccc3c2)Cc2ccc3ccccc3c2)cc1 [AON-MG23-07, 2-(4-(2-(bis(naphthalen-2-ylmethyl)phosphoryl)ethyl)benzyl)isoindolin-1-one]						reduced degree of penetration into Matrigel	
NC(=O)N(CCc1ccc(CN2Cc3ccccc3C2=O)cc1)Cc1ccc2ccccc2c1 [AON-MG23-08, 1-(naphthalen-2-ylmethyl)-1-(4-((1-oxoisoindolin-2-yl)methyl)phenethyl)urea]				reduced expression	reduced expression	reduced degree of penetration into Matrigel	
